The source of these data is patent US12071421B2, “Process for the synthesis of substituted chloromethyl dialkylphosphates” (HELSINN HEALTHCARE SA, priority 2011, dated 2024).

Converted amounts (≈) assume the structure as drawn.

For orientation: solubility means how much of the substance goes into solution per volume. Lower therefore signals little dissolved substance.

The nature of series [1]: Chemical stability according to ICH guidelines under accelerated conditions (40° C.). Type of series: physicochemical. The protocol:
Stability was tested according to ICH guidelines under accelerated conditions (40° C.).

The nature of series [2]: Aqueous solubility (neutral pH). Type of series: physicochemical. Conditions: for solubility: aqueous medium.
Series [3] is described as follows: Dog PKs study / comparative bioequivalence (IV vs oral netupitant). Type of series: in vivo, Beagle dogs. The method, then:
The pharmacokinetics (PKs) study of three compounds (e.g., compound nos. 1-3 of the above Table 3), as compared to a reference compound—netupitant (orally administered), on rat and dog was conducted.
Dog PKs Study: the dogs tested in the study were Beagle dogs, body weight 8-10 kg, and 3 male dogs per group. The four PK experiments were performed in 12 naïve dogs. The dose was 3 mg/kg administered via intravenous (IV) slow injection into the left and right cephalic or left and right saphenous veins used in rotation. […] The dose was administered to each animal on the basis of the most recently recorded body weight and the volume administered was recorded for each animal. Netupitant 3 mg/kg dose was tested at 2 ml/kg in vehicle (DMSO:Ethanol:Tween80 solution=[…], v/v), dependence on its solubility. Dose was freshly prepared before each single PK experiment. Before administration, dogs were fasted 12 hr, water ad libitum. After 480 min time point blood was collected, dogs were fed. 0.5 ml blood was collected in heparinised tubes at pre-dose and at 2, 5, 15, 30 min, 1, 2, 4, 6, 8, 12, 24, 36, 48 and 72 hr after intravenous administration. […] Prepared quantification standard curve at 2, 10, 40, 100, 200, 1000 and 2000 ng/ml (diluted from methanol stock with methanol containing 1% formic acid). […] Dog plasma samples were analyzed by using an API4000 MS coupled with HPLC. […]

Series [4] is described as follows: Stability studies of GA1 parent acid species and its salts (degradation on storage). The method, then:
Their synthesis employed either a) neutralization of the dried diacid phosphate species and its corresponding base salts or b) a direct acid deprotection starting from the dried di(tert-butyl)-protected phosphate species. Neutralization was performed with L-histidine, magnesium salt, N-methyl-D-glucamine (dimeglumine), and L-lysine. Both procedures were tried in the synthesis of citric derivatives whereas with other acids the direct deprotection reaction was used. The figures below show the most relevant structures.
Alphabetical letters are used to denote data points on the graph that correspond to degradation percentage values over time for respective salts of the same parent compound as just described above and in Table 2 below.

On to `Cc1ccccc1-c1cc(N2CC[N+](C)(COP(=O)(O)O)CC2)ncc1N(C)C(=O)C(C)(C)c1cc(C(F)(F)F)cc(C(F)(F)F)c1` [Compound 1], for which the “Chemical Stability” value in series [1] was “medium”. Moreover, the solubility in series [2] (pH 7) lay within 10000 to 15000 µg/mL. In series [3] (IV), the “bioequivalence to oral netupitant at the same dose” value was “bioequivalent”.
For the molecule `CC(=O)OC[N+]1(C)CCN(c2cc(-c3ccccc3C)c(N(C)C(=O)C(C)(C)c3cc(C(F)(F)F)cc(C(F)(F)F)c3)cn2)CC1` [Compound 7], the “Chemical Stability” value in series [1] is “low”. In addition, the “Solubility (neutral pH)” value in series [2] is listed as “insoluble”.
On to `Cc1ccccc1-c1cc(N2CC[N+](C)(COP(=O)([O-])O)CC2)ncc1N(C)C(=O)C(C)(C)c1cc(C(F)(F)F)cc(C(F)(F)F)c1` [parent acid species], for which the Degradation result in series [4] (1 week) is reported as “over 8”. Moreover, in series [4] (6 months), the Degradation result is reported as “over 65%” and the total degradation was determined as 7.0300.
With `Cc1ccccc1-c1cc(N2CC[N+](C)(COP(=O)([O-])O)CC2)ncc1N(C)C(=O)C(C)(C)c1cc(C(F)(F)F)cc(C(F)(F)F)c1` [1. NaOH, 3 eq. 2. Fumaric acid, 1 eq.], the figures for the Degradation entry in series [4] (12 days) and in series [4] (14 days) were “+1.80% in 12 days (in argon)” and “+1.95% in 14 days (in air)”, respectively.
For `CCCC(=O)OC[N+]1(C)CCN(c2cc(-c3ccccc3C)c(N(C)C(=O)C(C)(C)c3cc(C(F)(F)F)cc(C(F)(F)F)c3)cn2)CC1` [Compound 8], in series [1], the “Chemical Stability” value was “Low”. For the same molecule, in series [2], the “Solubility (neutral pH)” value is recorded as “insoluble”.
Consider `Cc1ccccc1-c1cc(N2CC[N+](C)(COP(=O)(O)O)CC2)ncc1N(C)C(=O)C(C)(C)c1cc(C(F)(F)F)cc(C(F)(F)F)c1.Cl.[Cl-]` [chloride hydrochloride HCl salt of GA1, 4-(5-(2-(3,5-bis(trifluoromethyl)phenyl)-N,2-dimethylpropanamido)-4-(o-tolyl)pyridin-2-yl)-1-methyl-1-((phosphonooxy)methyl)piperazin-1-ium chloride hydrochloride], for which the “resistance to decoupling of the oxo-phosphonomethyl and reversion of the active moiety to its parent state” value in series [4] is “tremendously resistant”.
Molecule `Cc1ccccc1-c1cc(N2CCN(C)CC2)ncc1N(C)C(=O)C(C)(C)c1cc(C(F)(F)F)cc(C(F)(F)F)c1` [Compound 9, 2-(3,5-bis(trifluoromethyl)phenyl)-N,2-dimethyl-N-(6-(4-methylpiperazin-1-yl)-4-(o-tolyl)pyridin-3-yl)propanamide, reference compound] gave a solubility in series [2] (pH 7, unit inferred) of 250 µg/mL (≈ 432 µM). Besides, the AUC(0-t) in series [3] (male, beagle, plasma, PO, 3 mg/kg, read-out: Mean AUC0-t (converted)) is 5120 ng·h/mL.
Consider `Cc1ccccc1-c1cc(N2CC[N+](C)(COP(=O)([O-])O)CC2)ncc1N(C)C(=O)C(C)(C)c1cc(C(F)(F)F)cc(C(F)(F)F)c1` [N-methyl-D-glucamine (Meglumine), 2 eq.], for which the Degradation result in series [4] (6 days) is “+0.87% in 6 days (in air)”; in series [4] (11 days), “+1.52% in 11 days (in argon)”.
`Cc1ccccc1-c1cc([N+]2([O-])CCN(C)CC2)ncc1N(C)C(=O)C(C)(C)c1cc(C(F)(F)F)cc(C(F)(F)F)c1` [Compound 5, reference compound]: in series [1], the “Chemical Stability” value is “medium”. In series [2] (pH 7), the solubility is roughly 1000 µg/mL (≈ 1680 µM).
As for `Cc1ccccc1-c1cc([N+]2([O-])CCN(C)CC2)[n+]([O-])cc1N(C)C(=O)C(C)(C)c1cc(C(F)(F)F)cc(C(F)(F)F)c1` [Compound 6], the “Chemical Stability” value in series [1] is on record as “low”.
For the molecule `Cc1ccccc1-c1cc(N2CC[N+](C)(COP(=O)([O-])O)CC2)ncc1N(C)C(=O)C(C)(C)c1cc(C(F)(F)F)cc(C(F)(F)F)c1` [HBr, 48%, 4 eq.], the “Product stability (comment)” value in series [4] is on record as “Product degrades rapidly”.
In the case of `Cc1ccccc1-c1cc(N2CCN(C)CC2)[n+]([O-])cc1N(C)C(=O)C(C)(C)c1cc(C(F)(F)F)cc(C(F)(F)F)c1` [Compound 4], in series [1], the “Chemical Stability” value is listed as “medium”. This molecule came in with a solubility in series [2] (pH 7) of roughly 600 µg/mL (≈ 1010 µM).
On to `Cc1ccccc1-c1cc(N2CC[N+](C)(COP(=O)([O-])O)CC2)ncc1N(C)C(=O)C(C)(C)c1cc(C(F)(F)F)cc(C(F)(F)F)c1` [L-lysine, 1 eq.], for which the Degradation entry is listed as “+0.48% in 12 days (in argon)” in series [4] (12 days) and “+0.69% in 14 days (in air)” in series [4] (14 days).
